In PubChem BioAssay (NCI):
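Exposure lasted 48 hours, with cells grown in 96-well plates and compounds tested at five concentrations. GI50 = concentration required for 50% inhibition of growth. TGI: total growth inhibition.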

Experiments:
Test in all cases: NCI tumour cell line growth inhibition, 48 h
[1] = tested on: A549 NSCLC
[2] = tested on: RPMI-8226 leukemia
[3] = tested on: DU-145 prostate
[4] = tested on: UO-31 renal
[5] = tested on: BT-549 breast
[6] = tested on: MDA-MB-435
[7] = tested on: NCI/ADR-RES ovarian
[8] = tested on: MCF7 breast
[9] = tested on: K-562 leukemia
[10] = tested on: SK-OV-3 ovarian
[11] = tested on: MOLT-4 leukemia
[12] = tested on: ACHN renal
[13] = tested on: HOP-92 NSCLC
[14] = tested on: LOX IMVI melanoma
[15] = tested on: NCI-H522 lung
[16] = tested on: OVCAR-5 ovarian
[17] = tested on: M14 melanoma
[18] = tested on: A498 renal
[19] = tested on: U251 CNS
[20] = tested on: NCI-H226 lung
[21] = tested on: MDA-MB-231 breast
[22] = tested on: NCI-H460 lung
[23] = tested on: HS 578T breast
[24] = tested on: SF-268 CNS
[25] = tested on: HCT-116 colon
[26] = tested on: HOP-62 NSCLC
[27] = tested on: UACC-62 melanoma
[28] = tested on: SK-MEL-5 melanoma
[29] = tested on: NCI-H23 lung
[30] = tested on: CCRF-CEM leukemia
[31] = tested on: HCC-2998 colon
[32] = tested on: SW-620 colon
[33] = tested on: HL-60(TB) leukemia
[34] = tested on: OVCAR-8 ovarian
[35] = tested on: EKVX NSCLC
[36] = tested on: T-47D breast
[37] = tested on: 786-0 renal
[38] = tested on: SF-539 CNS
[39] = tested on: IGROV1 ovarian
[40] = tested on: MALME-3M melanoma
[41] = tested on: RXF 393 renal
[42] = tested on: SK-MEL-28 melanoma
[43] = tested on: SR leukemia
[44] = tested on: UACC-257 melanoma
[45] = tested on: SK-MEL-2 melanoma
[46] = tested on: OVCAR-3 ovarian
[47] = tested on: SNB-19 CNS
[48] = tested on: TK-10 renal
[49] = tested on: SNB-75 CNS
[50] = tested on: HCT-15 colon
[51] = tested on: SN12C renal
[52] = tested on: KM12 colon
[53] = tested on: COLO 205 colon
[54] = tested on: SF-295 CNS
[55] = tested on: OVCAR-4 ovarian
[56] = tested on: HT29 colon
[57] = tested on: CAKI-1 renal

COc1cnc2c(c1)C(=O)c1c-2n(CCCN2CCC(O)CC2)c(=O)c2cc(F)ccc12
GI50 [1]: 0.0899 µM
TGI [1]: 0.32 µM
GI50 [2]: 0.109 µM
TGI [2]: 0.63 µM
GI50 [3]: 0.174 µM
TGI [3]: 1.41 µM
GI50 [4]: 0.135 µM
TGI [4]: 0.619 µM
GI50 [5]: 0.697 µM
TGI [5]: 14.4 µM
GI50 [6]: 0.382 µM
TGI [6]: 5.72 µM
GI50 [7]: 0.303 µM
TGI [7]: 1.98 µM
GI50 [8]: 0.0312 µM
TGI [8]: 1.17 µM
GI50 [9]: 0.216 µM
TGI [9]: 2.31 µM
GI50 [10]: 0.22 µM
TGI [10]: 0.783 µM
GI50 [11]: 0.0445 µM
TGI [11]: 0.337 µM
GI50 [12]: 0.0902 µM
TGI [12]: 0.332 µM
GI50 [13]: 0.31 µM
TGI [13]: 3.22 µM
GI50 [14]: 0.127 µM
TGI [14]: 0.295 µM
GI50 [15]: 0.0584 µM
TGI [15]: 0.479 µM
GI50 [16]: 0.355 µM
TGI [16]: 1.6 µM
GI50 [17]: 0.254 µM
TGI [17]: 1.63 µM
GI50 [18]: 0.198 µM
TGI [18]: 1.23 µM
GI50 [19]: 0.0814 µM
TGI [19]: 0.453 µM
GI50 [20]: 0.135 µM
TGI [20]: 0.307 µM
GI50 [21]: 0.485 µM
TGI [21]: 2.1 µM
GI50 [22]: 0.0444 µM
TGI [22]: 0.221 µM
GI50 [23]: 1.67 µM
TGI [23]: 52.4 µM
GI50 [24]: 0.272 µM
TGI [24]: 8.32 µM
GI50 [25]: 0.0895 µM
TGI [25]: 0.591 µM
GI50 [26]: 0.142 µM
TGI [26]: 0.645 µM
GI50 [27]: 0.24 µM
TGI [27]: 0.918 µM
GI50 [28]: 0.201 µM
TGI [28]: 0.628 µM
GI50 [29]: 0.292 µM
TGI [29]: 1.32 µM
GI50 [30]: 0.0797 µM
TGI [30]: 1.95 µM
GI50 [31]: 1.23 µM
TGI [31]: 9.98 µM
GI50 [32]: 0.107 µM
TGI [32]: 2.1 µM
GI50 [33]: 0.293 µM
TGI [33]: 0.96 µM
GI50 [34]: 0.173 µM
TGI [34]: 1.16 µM
GI50 [35]: 0.271 µM
TGI [35]: 1.62 µM
GI50 [36]: 0.0996 µM
TGI [36]: 0.86 µM
GI50 [37]: 0.211 µM
TGI [37]: 0.925 µM
GI50 [38]: 0.295 µM
TGI [38]: 1.14 µM
GI50 [39]: 0.301 µM
TGI [39]: 2.24 µM
GI50 [40]: 0.298 µM
TGI [40]: 1.2 µM
GI50 [41]: 0.217 µM
TGI [41]: 0.838 µM
GI50 [42]: 1.39 µM
TGI [42]: 9.8 µM
GI50 [43]: 0.0806 µM
TGI [43]: 1.19 µM
GI50 [44]: 0.296 µM
TGI [44]: 1.81 µM
GI50 [45]: 0.61 µM
TGI [45]: 2.86 µM
GI50 [46]: 0.254 µM
TGI [46]: 1.18 µM
GI50 [47]: 0.175 µM
TGI [47]: 1.32 µM
GI50 [48]: 0.323 µM
TGI [48]: 1.59 µM
GI50 [49]: 0.252 µM
TGI [49]: 2.59 µM

Cn1c(O)c(C(/C=C/c2ccccc2)=NCCN=C(/C=C/c2ccccc2)c2c(O)n(C)c(=O)n(C)c2=O)c(=O)n(C)c1=O
GI50 [1]: 16.7 µM
TGI [1]: > 50 µM
GI50 [2]: 9.3 µM
TGI [2]: 30.4 µM
GI50 [50]: 14.5 µM
TGI [50]: > 50 µM
GI50 [3]: 13.3 µM
TGI [3]: > 50 µM
GI50 [4]: 23.3 µM
TGI [4]: > 50 µM
GI50 [5]: 10.2 µM
TGI [5]: 29.5 µM
GI50 [6]: 18 µM
TGI [6]: > 50 µM
GI50 [7]: 15.3 µM
TGI [7]: > 50 µM
GI50 [8]: 15.9 µM
TGI [8]: > 50 µM
GI50 [9]: 14.6 µM
TGI [9]: > 50 µM
GI50 [10]: 19.9 µM
TGI [10]: > 50 µM
GI50 [51]: 16.5 µM
TGI [51]: > 50 µM
GI50 [11]: 15.8 µM
TGI [11]: > 50 µM
GI50 [12]: 21.2 µM
TGI [12]: > 50 µM
GI50 [13]: 12 µM
TGI [13]: 32.5 µM
GI50 [14]: 17.1 µM
TGI [14]: > 50 µM
GI50 [15]: 16.8 µM
TGI [15]: > 50 µM
GI50 [16]: 16.8 µM
TGI [16]: > 50 µM
GI50 [52]: 14.1 µM
TGI [52]: > 50 µM
GI50 [53]: 17.3 µM
TGI [53]: > 50 µM
GI50 [54]: 16.2 µM
TGI [54]: > 50 µM
GI50 [17]: 15 µM
TGI [17]: > 50 µM
GI50 [18]: 16.6 µM
TGI [18]: 40.7 µM
GI50 [19]: 18.3 µM
TGI [19]: > 50 µM
GI50 [20]: 24.6 µM
TGI [20]: > 50 µM
GI50 [21]: 20.9 µM
TGI [21]: > 50 µM
GI50 [22]: 10.1 µM
TGI [22]: 24.6 µM
GI50 [23]: 13.4 µM
TGI [23]: 34.7 µM
GI50 [24]: 15.1 µM
TGI [24]: > 50 µM
GI50 [25]: 13.6 µM
TGI [25]: > 50 µM
GI50 [26]: 23.4 µM
TGI [26]: > 50 µM
GI50 [55]: 13.9 µM
TGI [55]: > 50 µM
GI50 [27]: 19.2 µM
TGI [27]: > 50 µM
GI50 [28]: 11.4 µM
TGI [28]: 29.5 µM
GI50 [29]: 15 µM
TGI [29]: > 50 µM
GI50 [30]: 12.4 µM
TGI [30]: > 50 µM
GI50 [32]: 15.5 µM
TGI [32]: 34.2 µM
GI50 [33]: 9.14 µM
TGI [33]: 27.4 µM
GI50 [34]: 16.6 µM
TGI [34]: > 50 µM
GI50 [35]: 25.8 µM
TGI [35]: > 50 µM
GI50 [36]: 16.1 µM
TGI [36]: > 50 µM
GI50 [37]: 21.3 µM
TGI [37]: > 50 µM
GI50 [38]: 13.7 µM
TGI [38]: 33.3 µM
GI50 [39]: 20.7 µM
TGI [39]: > 50 µM
GI50 [40]: 30.9 µM
TGI [40]: > 50 µM
GI50 [41]: 22.5 µM
TGI [41]: > 50 µM
GI50 [42]: 10.2 µM
TGI [42]: 33.6 µM
GI50 [56]: 16.9 µM
TGI [56]: > 50 µM
GI50 [44]: 23.5 µM
TGI [44]: > 50 µM
GI50 [45]: 27.3 µM
TGI [45]: > 50 µM
GI50 [46]: 21 µM
TGI [46]: > 50 µM
GI50 [47]: 21.6 µM
TGI [47]: > 50 µM
GI50 [48]: 23.7 µM
TGI [48]: > 50 µM
GI50 [57]: 19.9 µM
TGI [57]: > 50 µM
GI50 [49]: 17.6 µM
TGI [49]: > 50 µM
